Data taken from patent US9732078B2, “Therapeutic use of imidazopyridine derivatives” (SANOFI, priority 2012, dated 2017).

Tests used:
Format in all cases: cell-based
[1] = test system: TCC97-7 bladder cancer tumour cells carrying the Ser249Cys mutation of FGF receptor 3; test: Cytotoxic effect: percentage of permeabilized (very fluorescent, Hoechst 33342) TCC97-7 cells; conditions: 3 days
Experimental: In parallel to their antiproliferative capacity, the potential cytotoxic effect of the FGF-R antagonists is measured by means of quantifying the number of cells of which the membranes are permeabilized. The appearance of pores in the plasma membrane of the cells corresponds to a state of cell death which enables the Hoechst 33342 to penetrate more easily into the cell. This is reflected by a very strong increase in the amount of fluorescence detected in the nuclei. The percentage of cells in a state of cell death is calculated by the ratio between the number of very fluorescent nuclei to the total number of nuclei, multiplied by 100. The observations are carried out in the same way as the quantification of the nuclei for the cell proliferation.

[2] = test system: TCC97-7 bladder cancer cells carrying the Ser249Cys mutation of FGF receptor 3; test: Reduction of intracellular ATP content of TCC97-7 cells (Cell Titer-Glo, 3 days, serum-supplemented medium); conditions: TCC97-7 cells in presence of serum
Experimental: Evaluation of the Capacity of the FGF-R Antagonists to Reduce the ATP Content of TCC97-7 Bladder Cancer Cells Carrying the Ser249Cys Mutation of FGF Receptor 3, Cultured in a Serum-Supplemented Medium
To do this, 3000 cells are seeded in 50 μl of complete medium (Ham-F/12, 1% FCS, […], non-essential amino acids, sodium pyruvate, 1% insulin/transferrin/selenium, hydrocortisone). 16 hours later, 50 μl of the various compounds are added at 0.2, 2, 20 and 60 μM after dilution in complete culture medium in order to obtain final concentrations of 0.1, 1, 10 and 30 μM. After 3 days, the ATP content of the cells is measured using the Cell Titer-Glo® Luminescent Cell Viability Assay kit (Promega, France) according to the supplier's recommendations. The percentage inhibition of the amount of intracellular ATP is calculated by considering the ATP content of the cells cultured in the absence of antagonist to be 0% inhibition. 100% inhibition would correspond to a well in which the ATP content is zero.

[3] = test system: TCC97-7 bladder cancer tumour cells carrying the Ser249Cys mutation of FGF receptor 3; test: Inhibition of serum-induced proliferation of TCC97-7 bladder cancer cells (count of Hoechst 33342-labelled nuclei after 3 days); conditions: TCC97-7 cells in presence of serum
Experimental: To do this, 2000 cells are seeded in the morning in 50 μl of complete medium (Ham-F/12, 1% FCS, 2 mM glutamine, non-essential amino acids, sodium pyruvate, 1% insulin/transferrin/selenium, hydrocortisone). In the evening, 50 μl of the various compounds are added at 0.02, 0.2, 2 or 20 μM after dilution in complete culture medium in order to obtain final concentrations of 0.01, 0.1, 1 and 10 μM. After 3 days, the cell proliferation is evaluated by measuring the number of nuclei at the bottom of each well corresponding to a number of cells. The nuclei are detected by means of labelling with Hoechst 33342 (Invitrogen, ref H3570). 100 μl of Hoechst 33342 diluted to 1/5000th in PBS are added to each well for 30 min at ambient temperature on non-fixed cells. The nuclei are detected by fluorescence at 350 nm at ×2 magnification with an Operetta (PerkinElmer) using the Acapella (PerkinElmer) imaging software and analysed using the Columbus (PerkinElmer) image analysis software. The percentage inhibition of the cell proliferation is calculated by considering the number of nuclei present in the wells in which the TCC97-7 cells are cultured in the absence of FGF-R antagonists to be 0% inhibition. 100% inhibition would correspond to a well no longer containing cells.

| Compound | Cytotoxicity (% of permeable cells) ([1]; 0.01 μM) | Cytotoxicity (% of permeable cells) ([1]; 0.1 μM) | Cytotoxicity (% of permeable cells) ([1]; 1 μM) | Cytotoxicity (% of permeable cells) ([1]; 10 μM) | Inhibition of the amount of intracellular ATP (%) ([2]; 0.1 μM) | Inhibition of the amount of intracellular ATP (%) ([2]; 1 μM) | Inhibition of the amount of intracellular ATP (%) ([2]; 10 μM) | Inhibition of proliferation (%) ([3]; 0.1 μM) | Inhibition of proliferation (%) ([3]; 1 μM) | Inhibition of proliferation (%) ([3]; 10 μM) | Inhibition of proliferation (%) ([3]; 0.01 μM) | Inhibition of the amount of intracellular ATP (%) ([2]; 30 μM) |
| --- | --- | --- | --- | --- | --- | --- | --- | --- | --- | --- | --- | --- |
| Cn1c(=O)n(Cc2ccc(F)cc2)c(=O)c2cc(C(=O)c3nc(-c4cccc(C(=O)[O-])c4)c4ccccn34)ccc21.[Na+] [compound 49, Sodium salt of 3-(3-{[3-(4-fluorobenzyl)-1-methyl-2,4-dioxo-1,2,3,4-tetrahydroquinazolin-6-yl]carbonyl}imidazo[1,5-a]pyridin-1-yl)benzoic acid] | 5% | 5% | 6% | 12% | −2% | 14% | 67% | 9% | 55% | 81% | – | – |
| COCn1c(=O)n(Cc2ccc(F)cc2)c(=O)c2cc(C(=O)c3nc(-c4cccc(C(=O)[O-])c4)c4ccccn34)ccc21.[Na+] [compound 71] | 4% | 4% | 5% | 1% | −4% | −1% | 94% | 1% | 14% | 85% | 0% | – |
| CCOC(=O)c1cccc(-c2nc(C(=O)c3ccc4c(c3)c(=O)n(Cc3ccc(F)cc3)c(=O)n4C)n3ccccc23)c1 [compound 79] | 1% | 1% | 2% | 10% | −6% | 7% | 72% | 0% | 17% | 71% | 5% | – |
| Cn1c(=O)n(Cc2cccc(F)c2)c(=O)c2cc(C(=O)c3nc(-c4cccc(C(N)=O)c4)c4ccccn34)ccc21 [compound 108] | 4% | 5% | 4% | 4% | – | – | – | −5% | 6% | 22% | −4% | – |
| Cc1nnc(-c2cccc(-c3nc(C(=O)c4ccc5c(c4)c(=O)n(Cc4ccc(F)cc4)c(=O)n5C)n4ccccc34)c2)o1 [compound 140] | 1% | 1% | 1% | 2% | – | – | – | −1% | −7% | 26% | 0% | – |
| Cn1c(=O)n(CCc2ccc(F)cc2)c(=O)c2cc(C(=O)c3nc(-c4cccc(C(=O)[O-])c4)c4ccccn34)ccc21.[Na+] [compound 148] | 4% | 4% | 4% | 11% | 1% | 8% | 66% | 6% | 15% | 81% | 12% | – |
| CCCn1c(=O)n(CCCC(C)C)c(=O)c2cc(C(=O)c3nc(-c4cccc(C(=O)[O-])c4)c4ccccn34)ccc21.[Na+] [compound 207] | 5% | 4% | 5% | 23% | 10% | 23% | 62% | 7% | 45% | 82% | 2% | – |
| Cc1ccc(Cn2c(=O)c3cc(C(=O)c4nc(-c5cccnc5)c5ccccn45)ccc3n(C)c2=O)s1 [compound 220] | 6% | 5% | 5% | 11% | 6% | 10% | 16% | 3% | 13% | 49% | 4% | 60% |
| CCCn1c(=O)n(CCOc2ccc(F)cc2)c(=O)c2cc(C(=O)c3nc(-c4cccc(C(=O)[O-])c4)c4ccccn34)ccc21.[Na+] [compound 221, Sodium salt of 3-[3-({3-[2-(4-fluorophenoxy)ethyl]-1-propyl-2,4-dioxo-1,2,3,4-tetrahydroquinazolin-6-yl}carbonyl)imidazo[1,5-a]pyridin-1-yl]benzoic acid] | 4% | 5% | 6% | 7% | −2% | 7% | 73% | 27% | 80% | 85% | 5% | – |
| CCCn1c(=O)n(Cc2ccc(C)s2)c(=O)c2cc(C(=O)c3nc(-c4cccc(C(=O)[O-])c4)c4ccccn34)ccc21.[Na+] [compound 224] | 3% | 3% | 4% | 9% | −1% | 20% | 83% | 0% | 27% | 82% | 3% | – |
| Cn1c(=O)n(Cc2ccc(F)cc2)c(=O)c2cc(C(=O)c3ncc4ccccn34)ccc21 [compound 226] | 5% | 6% | 10% | 25% | −1% | 5% | 41% | 8% | 28% | 73% | 3% | – |
| CCCn1c(=O)n(Cc2ccc(F)cc2)c(=O)c2cc(C(=O)c3nc(-c4cnc(N(C)C)nc4)c4ccccn34)ccc21 [compound 232] | 3% | 3% | 4% | 23% | 7% | 8% | 45% | 1% | 20% | 79% | −6% | – |
